This data set is described as follows: in vitro. The conditions noted are these: human, hela cells, % viability.
As a reminder, the viability is a read-out of living cells in per cent, often relative to untreated cells. `COc1cc(NC(=O)Cn2c(-c3cncs3)nc3ccccc32)cc(OC)c1OC` [CBK267640]: the viability at 28.5 h, 10 µM stood at 97.2%. The value for `CC(NC(=O)c1cccc2ccccc12)c1ccc2ccccc2c1` (centres unmarked) [CBK267646] was 90.1%; that for `Nc1nonc1-c1nc2ccccc2n1Cc1ccc(-c2nn[nH]n2)cc1` [CBK267648] was 91.3%. Then `Cc1ccccc1NS(=O)(=O)c1ccc(OCC(=O)N2CCN(c3cc(Cl)ccc3C)CC2)cc1` [CBK267649], with 94.5%. Then `O=C(CSc1nnc(-c2ccc(Cl)cc2Cl)[nH]1)Nc1ccc(F)cc1` [CBK267651], with 96.4%; and `O=C(C1CCCN(S(=O)(=O)c2ccc(F)cc2)C1)N(Cc1ccccc1)Cc1ccccc1` (centres unmarked) [CBK267652], with 108%; and `N#Cc1c(NC(=O)CSc2nnc(-c3ccc(Cl)cc3)o2)oc(-c2ccccc2)c1-c1ccccc1` [CBK267655], with 93.9%. For the molecule `CC(C)C(NS(=O)(=O)c1ccc([N+](=O)[O-])cc1)C(C)C` [CBK267656], the viability at 28.5 h, 10 µM turned out to be 94.8%. Then `CC(NS(=O)(=O)c1ccc(F)cc1)C(=O)Nc1ccc(C(N)=O)cc1` (centres unmarked) [CBK267658], with 104%; and `CN(C)S(=O)(=O)N(CC(=O)O)c1ccccc1` [CBK267660], with 105%; and `Cc1ccc2c(C)c(C(=O)Nc3ccc(S(N)(=O)=O)cc3)oc2c1` [CBK267661], with 110%. Then `Cc1ccc2c(C)c(C(=O)Nc3sc4c(c3C(=O)NCc3ccco3)CCC4)oc2c1` [CBK267662], with 99.2%; and `Cc1c(C(=O)Nc2ccc(S(=O)(=O)N3CCCCCC3)cc2)oc2ccc(Cl)cc12` [CBK267664], with 89.2%. Consider `NC(=O)Cn1c(=O)n(CCc2ccccc2)c(=O)c2c3c(sc21)CCCC3` [CBK267665], for which the viability at 28.5 h, 10 µM turned out to be 103%.

On to `COC(=O)Cn1c(=O)n(CCc2ccccc2)c(=O)c2c3c(sc21)CCCC3` [CBK267666], for which the viability at 28.5 h, 10 µM was determined as 98.6%. Then `COc1ccc(CNc2oc(-c3ccccc3)nc2S(=O)(=O)c2ccccc2)cc1` [CBK267669], with 105%; and `CC(Nc1oc(-c2ccco2)nc1S(=O)(=O)c1ccc(F)cc1)c1ccccc1` (centres unmarked) [CBK267671], with 73.2%. Then `O=C(O)CCC(=O)Nc1ccccc1C(=O)NC1CCCCC1` [CBK267674], with 105%; and `O=C(NC1CCCCC1)c1ccccc1NC(=O)C1CCCCC1C(=O)O` (centres unmarked) [CBK267675], with 97%; and `Cc1ccccc1C(=O)NCCNC(=O)c1nonc1N` [CBK267677], with 103%. Then `Cc1ccc(SCC(=O)NCCCN2CCOCC2)cc1` [CBK267678], with 99.3%. In the case of `NC(=O)c1ccccc1NC(=O)CCCN1C(=O)CCC1=O` [CBK267680], the viability at 28.5 h, 10 µM stood at 94.1%.

Regarding `O=C(CCCCCN1C(=O)CCC1=O)Nc1nc[nH]n1` [CBK267682], the viability at 28.5 h, 10 µM came to 103%. For `COc1ccc(/C(N)=N/OC(=O)CN(C)S(=O)(=O)c2ccccc2)cc1` [CBK267683], the viability at 28.5 h, 10 µM was found to be 93%. The value for `O=C(CCn1cnc2ccccc2c1=O)Nc1cccc(C(F)(F)F)c1` [CBK267687] was 91.5%; that for `CCOC(=O)c1ccc(Cn2c(-c3ccccc3)nnc2-c2ccccc2)o1` [CBK267691] was 87.8%; that for `Cn1c(=O)c2c(nc(SCC(=O)CSc3nc4c(c(=O)n(C)c(=O)n4C)n3C)n2C)n(C)c1=O` [CBK267692] was 86.9%.

As for `NS(=O)(=O)c1ccc(NC(=O)CCC2COc3ccccc3O2)cc1` (centres unmarked) [CBK267696], the viability at 28.5 h, 10 µM came out at 87.9%.

With `COc1ccc(C(=O)NNS(=O)(=O)N(C)C)cc1OC` [CBK267697], the viability at 28.5 h, 10 µM is 99.1%.

`CCOC(=O)c1c(-c2ccc(C)o2)csc1NC(=O)CN1C(=O)c2ccccc2C1=O` [CBK267699]: the viability at 28.5 h, 10 µM stood at 85.1%. Then `CC(C)(O)C#Cc1ccc(C(=O)NC(CSCc2ccccc2)C(=O)O)s1` (centres unmarked) [CBK267705], with 98.4%. Then `N=C(N)NC(=N)NCCc1c[nH]c2ccccc12` [CBK267706G], with 89.3%. Then `Cn1c(=O)c2c(nc(N3CCOCC3)n2CC/N=C2/CCCN2)n(C)c1=O` [CBK267709C], with 85.9%; and `CN(C)CCn1c2c(c3ccccc31)CCCn1nnnc1-2` [CBK267713C], with 94.8%; and `Cc1ccc(-n2c(SCC(=O)NC(C)Cc3ccccc3)nc3sc4c(c3c2=O)CC(C)(C)OC4)cc1` (centres unmarked) [CBK267714], with 94.7%. In the case of `CSc1nc(SCC(=O)N(c2ccccc2)c2ccccc2)c2c3c(sc2n1)CCC3` [CBK267715], the viability at 28.5 h, 10 µM was 90.6%.

As for `CC(NS(=O)(=O)c1cccc2c(S(=O)(=O)NC(C)c3ccccc3)cccc12)c1ccccc1` (centres unmarked) [CBK267717], the viability at 28.5 h, 10 µM came out at 83.6%. Then `O=C(Nc1cccc(S(=O)(=O)N2CCOCC2)c1)c1cc(-c2cccnc2)nc2ccc(Cl)cc12` [CBK267720], with 98%; and `COc1cc2c(cc1NC(=O)c1cc(-c3cccnc3)nc3ccc(C)cc13)oc1ccccc12` [CBK267722], with 92.1%. Then `O=C(Nc1ccc(N2CCOCC2)c2nonc12)c1cc(-c2cccnc2)nc2ccc(Cl)cc12` [CBK267724], with 89.8%.

As to `O=C(Nc1ccc(C(=O)N2CCOCC2)cc1)c1cc(-c2cccnc2)nc2ccc(Cl)cc12` [CBK267725], the viability at 28.5 h, 10 µM came to 93%.

Consider `NS(=O)(=O)c1ccc(CNC(=O)c2cc(-c3cccnc3)nc3ccc(Cl)cc23)cc1` [CBK267727], for which the viability at 28.5 h, 10 µM is 83.8%. Consider `CN(C)CCNC(=O)c1cc(-c2ccncc2)nc2ccc(Br)cc12` [CBK267728], for which the viability at 28.5 h, 10 µM is 103%.

On to `CN1CCN(NC(=O)c2cc(-c3cccnc3)nc3ccc(Cl)cc23)CC1` [CBK267729], for which the viability at 28.5 h, 10 µM turned out to be 110%. Then `CN1CCN(S(=O)(=O)c2ccc(NC(=O)c3cc(-c4ccncc4)nc4ccc(Cl)cc34)cc2)CC1` [CBK267730], with 98.6%. The value for `Cc1c(Cl)ccc2c(C(=O)NCCCn3cc(Br)cn3)cc(-c3ccncc3)nc12` [CBK267731] was 95.1%.

Take `Cc1ccc2nc(-c3ccncc3)cc(C(=O)Nc3ccc(C(F)(F)F)cc3)c2c1` [CBK267732]: the viability at 28.5 h, 10 µM was 91.6%. The value for `CN1CCN(S(=O)(=O)c2ccc(NC(=O)c3cc(-c4cccnc4)nc4ccc(Cl)cc34)cc2)CC1` [CBK267734] was 94.2%. Then `CNS(=O)(=O)c1ccc(NC(=O)c2cc(-c3ccc4c(c3)OCO4)nc3ccccc23)cc1` [CBK267735], with 99%. Then `Cc1ccc2nc(-c3ccncc3)cc(C(=O)N3CCN(C4CCCCC4)CC3)c2c1` [CBK267736], with 96.4%; and `Cc1cc(-c2cc(C(=O)NN3CCN(C)CC3)c3cc(Cl)ccc3n2)c(C)s1` [CBK267738], with 102%.

As for `NS(=O)(=O)c1ccc(CNC(=O)c2cc(-c3cccnc3)nc3ccc(Br)cc23)cc1` [CBK267740], the viability at 28.5 h, 10 µM worked out at 96.9%. Then `Cc1ccccc1-c1cc(C(=O)Nc2ccc(S(N)(=O)=O)cc2)c2cc(Cl)ccc2n1` [CBK267741], with 90%.

These data come from paper PMC12040169 (PLOS Biology, 2025).
